In patent publication US20110165266A1 (priority 2008, published 2011):
Read-outs that look alike come from different tables or passages of the source.

Tests used:
HIV [1] = experiment: HIV infection in low versus high sulfate media; conditions: FIG. 20B
HIV [2] = experiment: HIV infection with suboptimal (20 mM) chlorate; conditions: FIG. 21B
[3] = test system: VSV-G pseudotyped MLV vector (MMP-nls-lacZ[VSV-G]); type: cell-based, murine leukemia virus (MLV)
[4] = test system: MLV vector pMMp-nls-LacZ[VSV-G]; type: cell-based, murine leukemia virus (MLV)
[5] = test system: MLV vector pMMp-nls-LacZ[VSV-G]; type: cell-based, murine leukemia virus (MLV); remark: listed apart in the source
[6] = test system: VSV-G pseudotyped MLV vector (pLEGFP); type: cell-based, murine leukemia virus (MLV)
[7] = test system: MLV LTR-driven mRNA transcription (pCMMP-EGFP); type: cell-based, murine leukemia virus (MLV)
[8] = test system: resident (pCMMP-SEAP) and newly acquired (MMP-nls-lacZ[VSV-G]) MLV proviruses; type: cell-based, murine leukemia virus (MLV)
[9] = test system: VSV-G pseudotyped HIV-1 vector NL43E-R-Luc; type: cell-based
aryl sulfotransferases = conditions: cited from earlier work

With `Cc1cn([C@H]2C[C@H](N=[N+]=[N-])[C@@H](CO)O2)c(=O)[nH]c1=O` [AZT] the “inhibition of HIV infection in low sulfate media versus high sulfate media” value (HIV [1]) was “unaffected by low sulfate conditions” and the “inhibition of HIV infection in media containing 20 mM chlorate versus standard media” value (HIV [2]) was “unaffected by 20 mM chlorate”.
In the case of `[O-][Cl+2]([O-])O` [chlorate], the “fold less blue cells as compared to untreated cells” value [3] is reported as “approximately 6.7 fold”, the “time of addition that had no effect on viral reporter gene expression” value [3] is reported as ≥ 18 hpi and the “time of addition that led to a reduction in subsequent viral reporter gene expression” value [3] is reported as “up to 16 hpi”. The “fold less susceptible to infection, by reporter gene expression” value [4] was “approximately 9.3 fold”, the “additional reduction of MLV infection” value [5] was 2 fold and the “effect on accumulation of viral reverse transcription products” value [6] was “no effect”. The “reduction of viral-derived transcript levels, normalized to β-actin” value [7] was 11 fold, the “effect on gene expression from newly acquired versus resident proviruses” value [8] was “affected gene expression from the newly acquired, but not the resident proviruses” and the “influence on β-galactosidase expression from a resident MLV vector” value [8] was “not to influence”. For the same compound, the “reduction in HIV LTR-driven reporter gene expression” value [9] was 10 fold.
In the case of `COc1ccccc1O` [guaiacol], the “fold less blue cells as compared to untreated cells” value [3] is reported as ~3.4 fold, the “reduction of viral-derived transcript levels, normalized to β-actin” value ([7]; CHO-K1 cells, 100 mM chlorate, 5 mM guaiacol or both, FIGS. 6D, 6E) is reported as 17 fold and the “reduction in HIV LTR-driven reporter gene expression” value [9] is reported as 8 fold. For the same compound, the “quantities that interfere with aryl sulfotransferases” value (aryl sulfotransferases) was “mM”.
For `Oc1cc(Cl)ccc1Oc1ccc(Cl)cc1Cl` [trichlosan], the “quantities that interfere with aryl sulfotransferases” value (aryl sulfotransferases) is given as “μM”.
